Source: patent US11458132B2, “Quinolin-2(1H)-one inhibitors of Late SV40 Factor” (TRUSTEES OF BOSTON UNIVERSITY, priority 2020, dated 2022)

Experiments:
Huh7 cells = assay: Growth inhibition curves in Huh7 cells; type: cell-based; conditions: Homo sapiens, Huh-7
FH-B cells = assay: Microtubule sedimentation assay; type: cell-based, human
Procedure: Cell lysate preparation: For microtubule sedimentation assays, cells were treated as indicated in the figure legends, washed with PBS and incubated in 250 μl of microtubule sedimentation assay lysis buffer (100 mM PIPES pH 6.8, 2 M glycerol, 2 mM EGTA, 5 mM MgCl2, 0.1% Triton X-100) supplemented with 1 μM taxol, protease inhibitor cocktail (1:200, Abcam, ab201111) and phosphatase inhibitor cocktail (1:100, Abcam, ab201115) for 20 minutes at 37° C. Two hundred μl of scraped lysate was centrifuged at 21,000×g for 10 minutes at room temperature. Supernatants were saved as soluble fractions. Pellets were resuspended in 200 μl RIPA buffer (50 mM Tris HCl pH 8.0, 150 mM NaCl, 1% IGEPAL CA630, 0.05% deoxycholic acid) supplemented with 1.05% SDS, protease inhibitor cocktail (1:200) and phosphatase inhibitor cocktail (1:100) and incubated at 100° C. for 15 minutes. Pellet suspensions were centrifuged as before and supernatants were saved as pellet fractions.
(§1) Gel electrophoresis and immunoblotting: Microtubule sedimentation fractions and MLC2 analysis samples were separated by electrophoresis through tris-glycine and tricine polyacrylamide gels, respectively, which were transferred to PVDF membranes. Membranes with microtubule sedimentation fractions and MLC2 analysis samples were blocked in 5% milk in TBST and in 5% BSA in TBST, respectively. After overnight incubation with primary antibody at 4° C., the membranes were washed and incubated with secondary antibody for 1 hour at room temperature. Primary antibodies included anti-α-tubulin (1:2,000, Thermo Fisher Scientific, PA529444), anti-acetylated tubulin (1:1,000, Sigma-Aldrich, T7451), anti-phospho MYL9 (1:200, Thermo Fisher Scientific, PA517727), and anti-β-actin (1:5,000, Sigma-Aldrich, A1978). Secondary antibodies included Goat anti-Rabbit HRP (Thermo Fisher Scientific, 31460; 1:10,000 for anti-α-tubulin; 1:5,000 for anti-phospho MYL9), and Goat anti-Mouse HRP (Thermo Fisher Scientific, 62-6520; 1:5,000 for anti-acetylated tubulin; 1:10,000-1:20,000 for anti-β-actin). Membranes were placed into Pierce™ ECL Western Blotting Substrate (Thermo Fisher Scientific, 32106). Autoradiography film was exposed to each membrane for various times to ensure acquisition of non-saturated exposures. Band intensities were quantified from scanned films by densitometry using ImageJ.

[1] = system: RhoA/ROCK pathway in FH-B cells; assay: Phospho-MLC2 immunoblot (RhoA/ROCK pathway); type: cell-based, human; conditions: 4 μM FQI1, 10 minutes
Procedure: For analysis of phosphorylated MLC2, FH-B cells were treated as indicated in the figure legend, washed with PBS and incubated for 5 minutes in lysis buffer (50 mM Tris-HCl pH 8.0, 50 mM NaF, 5 mM MgCl2, 150 mM NaCl, 1% Triton X-100) supplemented with Tricine Sample Buffer (Bio-rad, 1610739), protease inhibitor cocktail (1:200), phosphatase inhibitor cocktail (1:100), and 1% ([…]. Lysates were incubated at 100° C. for 15 minutes and centrifuged at 21,000×g for 10 minutes prior to SDS-PAGE.
as §1, with “Secondary antibodies included Goat anti-Rabbit HRP (Thermo Fisher Scientific, 31460; 1:10,000 for anti-α-tubulin; 1:5,000 for anti-phospho MYL9), and Goat anti-Mouse HRP (Thermo Fisher Scientific, 62-6520; 1:5,000 for anti-acetylated tubulin; 1:10,000-1:20,000 for anti-β-actin). Membranes were placed into Pierce™ ECL Western Blotting Substrate (Thermo Fisher Scientific, 32106). Autoradiography film was exposed to each membrane for various times to ensure acquisition of non-saturated exposures.” left out

RPE cells = assay: Cell cycle analysis by flow cytometry at end of wound healing; type: cell-based; conditions: 4 μM FQI1, 12-hour time-point
Procedure: Cell cycle analysis by flow cytometry: After trypsinization, subsequent steps prior to staining were performed at 4° C. Cells in PBS were transferred dropwise into ethanol (final concentration of 70%) for overnight incubation. Fixed cells were washed with PBS and then incubated in 50 μg/ml propidium iodide and 10 μg/ml RNase A in PBS for 45 minutes at room temperature. After passage through a cell strainer, cell fluorescence was measured using a Becton Dickinson FACSCalibur. Ten thousand events were counted per sample. Histogram plots were generated using FlowJo.
All the samples, including a “0 hour” synchronized and an asynchronous sample, were harvested and prepared for flow cytometry, as described above. The proportion of cells in their respective cell cycle phases was determined by applying the Dean-Jett-Fox model in the FlowJo Cell Cycle analysis tool.

Row | SMILES | GI50 (Huh7 cells) [nM] | time after addition at which a drop in pelleted tubulin is observed (FH-B cells; 4 μM FQI1) [min] | microtubule stability and α-tubulin acetylation in the microtubule fraction (FH-B cells; 4 μM FQI1 (15- and 30-minute pellets), 1 μM nocodazole or taxol 30 minutes) | phosphorylation of MLC2 [1] | cells with a 4n DNA content (RPE cells) [%]
1 | CCOc1cc(N(C)C)ccc1-c1cc(=O)[nH]c2cc3c(cc12)OCO3 [FQI2-34, 8-(4-(dimethylamino)-2-ethoxyphenyl)-[1,3]dioxolo[4,5-g]quinolin-6(5H)-one] | 22.2 |  |  |  | 
2 | CCOc1ccccc1C1CC(=O)Nc2cc3c(cc21)OCO3 (centres unmarked) [FQI1, 8-(2-ethoxyphenyl)-7,8-dihydro-[1,3]dioxolo[4,5-g]quinolin-6(5H)-one] |  | 1 | increase in the amount of acetylated α-tubulin in the microtubule fraction | elevated | ~30
